Experimental data published in patent US8865716B2, “Dihydropteridinones II” (Boehringer Ingelheim International GmbH, priority 2013, dated 2014).

test system: Aβ42; experiment: Aβ42 production in H4 neuroglioma cells stably expressing human APP695 (Meso Scale Discovery electrochemiluminescence assay); format: cell-based; details: higher ratio = more specific inhibition of Aβ42 over Aβ total
Description: Cells were plated out to near confluency. The compounds to be tested were received as 10 mM stocks in 100% DMSO. A dilution series was initially generated in 100% DMSO and then diluted 200-fold in cell culture media such that the tested concentration range was 30 μM to 0.1 nM and the final DMSO concentration was 0.5%. The diluted compounds were incubated with the cells for 22 hours in an incubator at 37° C. and 5% CO2. Aβ42 as well as Aβ total levels were then measured post-incubation from the supernatant of the cells. Aβ42 levels were determined using a specific electrochemiluminescence assay provided by Meso Scale Discovery (Catalog #L21CA-1) according to the manufacturer's protocol. Aβ total levels were likewise determined using a specific electrochemiluminescence assay provided by Meso Scale Discovery (Catalog #L21ZA-1) according to the manufacturer's protocol.
In order to absolutely define the described compounds as modulators of γ-Secretase as opposed to simply inhibitors of γ-Secretase, measurements of not only Aβ42 but also Aβ total are performed.

| Ratio Aβ(total)/Aβ42 (Aβ total IC50/Aβ42 IC50) | SMILES |
| --- | --- |
| 85 | COc1cc(Nc2ncc3c(n2)N(C)C2(CCOC2)C(=O)N3CC(F)F)ccc1-n1cnc(C)c1 (stereo not shown) [Example 37h] |
| >147 | COc1cc(Nc2ncc3c(n2)N(C)C2(CC2)C(=O)N3CC(F)(F)F)cnc1-n1cnc(C)c1 [Example 50] |
| 51 | COc1cc(Nc2ncc3c(n2)N(C)C2(CCCOCC2)C(=O)N3C)ccc1-n1cnc(C)c1 (stereo not shown) [Example 42] |
| >25 | COc1cc(Nc2ncc3c(n2)N(C)C2(COC2)C(=O)N3C)ccc1-n1cnc(C)c1 [Example 41] |
| 58 | COc1cc(Nc2ncc3c(n2)N(C)C2(CCOC2)C(=O)N3C2CC2)ccc1-n1cnc(C)c1 (stereo not shown) [Example 37g] |
| 96 | COCCN1c2nc(Nc3ccc(-n4cnc(C)c4)c(OC)c3)nc(CC(C)C)c2N(C)C(=O)C12CCOC2 (stereo not shown) [Example 30] |
| 180 | CCc1nc(Nc2ccc(-n3cnc(C)c3)c(C#N)c2)nc2c1N(C)C(=O)C1(CCOC1)N2C (stereo not shown) [Example 35] |
| 50 | COc1cc(Nc2ncc3c(n2)N(C)C2(CC2)C(=O)N3CC(F)(F)F)ccc1-n1cnc(C)c1 [Example 44] |
| 54 | CCc1nc(Nc2cnc(-n3cnc(C)c3)c(OC)c2)nc2c1N(C)C(=O)C1(CC1)N2C [Example 37i] |
| 39 | COc1cc(Nc2ncc3c(n2)NC2(CCOC2)C(=O)N3CCC(C)C)ccc1-n1cnc(C)c1 (stereo not shown) [Example 29] |
| 88 | COc1cc(Nc2ncc3c(n2)N(C)C2(CCOC2)C(=O)N3C(C)c2ccccn2)ccc1-n1cnc(C)c1 (stereo not shown) [Example 37k] |
| 69 | COc1cc(Nc2ncc3c(n2)N(C)C2(CC4CCC2C4)C(=O)N3C)cnc1-n1cnc(C)c1 (stereo not shown) [Example 49] |
| 29 | Cc1ncc(-c2ccc(Nc3ncc4c(n3)N(C)C3(CCc5ccccc5C3)C(=O)N4C)cn2)o1 (stereo not shown) [Example 37] |
| 22 | COc1cc(Nc2ncc3c(n2)N(C)C2(CCOC2)C(=O)N3c2ccc(C(F)(F)F)cn2)ccc1-n1cnc(C)c1 (stereo not shown) [Example 48] |
| >3 | COc1cc(Nc2ncc3c(n2)NC2(CCOC2)C(=O)N3C2COC2)ccc1-n1cnc(C)c1 (stereo not shown) [Example 28] |
| >517 | COc1cc(Nc2ncc3c(n2)N(C)C2(CCC2)C(=O)N3CC(F)(F)F)ccc1-c1cnc(C)o1 [Example 45] |

| Ratio Aβ(total)/Aβ42 (Aβ total IC50/Aβ42 IC50) | SMILES |
| --- | --- |
| 61 | COc1cc(Nc2ncc3c(n2)N(C)C2(CC2)C(=O)N3CC(F)F)ccc1-n1cnc(C)c1 [Example 52] |
| 82 | COc1cc(Nc2ncc3c(n2)N(C)C2(CCOC2)C(=O)N3CC(F)(F)F)ccc1-n1cnc(C)c1 (stereo not shown) [Example 37e] |
| >112 | COc1cc(Nc2ncc3c(n2)N(C)C2(COCCOC2)C(=O)N3C)ccc1-n1cnc(C)c1 [Example 27] |
| >62 | COc1cc(Nc2nc3c(c(C(C)(C)O)n2)N(C)C(=O)C2(CCOC2)N3C)ccc1-c1cnc(C)o1 (stereo not shown) [Example 40] |
| >306 | COc1cc(Nc2ncc3c(n2)N(C)C2(CC2)C(=O)N3c2ccc(F)cc2)ccc1-n1cnc(C)c1 [Example 46] |
| 75 | COc1cc(Nc2ncc3c(n2)N(C)C2(CCOCC2)C(=O)N3c2cc(F)cc(F)c2)ccc1-n1cnc(C)c1 [Example 37c] |
| 91 | COc1cc(Nc2ncc3c(n2)N(C)C2(CCCCOC2)C(=O)N3C)ccc1-n1cnc(C)c1 (stereo not shown) [Example 39] |
| >15 | COc1cc(Nc2ncc3c(n2)N(C2CCCC2)C2(CC2)C(=O)N3C)ccc1-n1cnc(C)c1 [Example 38] |
| 46 | COc1cc(Nc2ncc3c(n2)N(C)C2(CCOC2)C(=O)N3CC2CCOCC2)ccc1-n1cnc(C)c1 (stereo not shown) [Example 26] |
| 47 | COc1cc(Nc2ncc3c(n2)N(C)C2(CCOCC2)C(=O)N3C2CC2)ccc1-n1cnc(C)c1 [Example 37b] |
| 98 | COc1cc(Nc2ncc3c(n2)N(C)C2(CC2)C(=O)N3C2COC2)ccc1-n1cnc(C)c1 [Example 47] |
| 57 | COc1cc(Nc2ncc3c(n2)N(C)C2(CCOCC2)C(=O)N3Cc2ccc(F)cc2F)ccc1-n1cnc(C)c1 [Example 37j] |
| 55 | COc1cc(Nc2ncc3c(n2)N(C)C2(CCOCC2)C(=O)N3c2ccc(F)cc2)ccc1-n1cnc(C)c1 [Example 37f] |
| >36 | COc1cc(Nc2nc3c(c(C(F)(F)F)n2)N(C)C(=O)C2(CCOCC2)N3C)ccc1-n1cnc(C)c1 [Example 37d] |
| 47 | COCCN1c2nc(Nc3ccc(-c4cnc(C)o4)c(OC)c3)nc(CC(C)C)c2N(C)C(=O)C12CCOC2 (stereo not shown) [Example 31] |

The next lines start with the compound.

| SMILES | Ratio Aβ(total)/Aβ42 (Aβ total IC50/Aβ42 IC50) |
| --- | --- |
| COc1cc(Nc2ncc3c(n2)N(C)C2(CCOC2)C(=O)N3C)ccc1-n1cnc(C)c1 (stereo not shown) [Example 6] | >136 |
| COCCN1C(=O)C2(CCOCC2)N(C)c2nc(Nc3ccc(-n4cnc(C)c4)c(OC)c3)ncc21 [Example 11] | 26 |
| COc1cc(Nc2ncc3c(n2)N(C)C2(CCOCC2)C(=O)N3C)ccc1-c1cnc(C)o1 [Example 1] | >244 |
| COc1cc(Nc2ncc3c(n2)NC2(CCOC2)C(=O)N3C)ccc1-n1cnc(C)c1 (stereo not shown) [Example 20] | >90 |
| COc1cc(Nc2ncc3c(n2)NC2(CCOC2)C(=O)N3CC2CCOCC2)ccc1-n1cnc(C)c1 (stereo not shown) [Example 22] | >9 |
| Cc1ncc(-c2ccc(Nc3ncc4c(n3)N(C)C3(CCOCC3)C(=O)N4C)cn2)o1 [Example 3] | >6 |
| COc1cc(Nc2ncc3c(n2)N(C)C2(CCOCC2)C(=O)N3C)ccc1-n1cnc(C)c1 [Example 2] | 89 |
| COc1cc(Nc2ncc3c(n2)N(C)C2(COCCOC2)C(=O)N3)ccc1-n1cnc(C)c1 [Example 25] | 91 |
| Cc1cn(-c2ccc(Nc3ncc4c(n3)NC3(CCOC3)C(=O)N4C)cc2C#N)cn1 (stereo not shown) [Example 19] | >257 |
| COCCN1C(=O)C2(CCOC2)N(C)c2nc(Nc3ccc(-n4cnc(C)c4)c(OC)c3)ncc21 (stereo not shown) [Example 16] | 88 |
| Cc1ncc(-c2ccc(Nc3ncc4c(n3)N(C)C3(CCOC3)C(=O)N4C)cn2)o1 (stereo not shown) [Example 8] | >10 |
| COc1cc(Nc2ncc3c(n2)N(C)C2(CCOC2)C(=O)N3C)ccc1-c1cnc(C)o1 (stereo not shown) [Example 7] | >315 |
| CCCN1C(=O)C2(CCOCC2)N(C)c2nc(Nc3ccc(-n4cnc(C)c4)c(OC)c3)ncc21 [Example 17] | 65 |
| COc1cc(Nc2ncc3c(n2)N(C)C2(CCOCC2)C(=O)N3)ccc1-n1cnc(C)c1 [Example 9] | >101 |
| COCCN1C(=O)C2(CCOCC2)N(C)c2nc(Nc3ccc(-c4ccnc(C)c4)cc3)ncc21 [Example 12] | 11 |
| Cc1ncc(-c2ccc(Nc3nc(C)c4c(n3)N(C)C3(CCOCC3)C(=O)N4C)cn2)o1 [Example 5] | >9 |
| COCCN1C(=O)C2(CCOC2)N(C)c2nc(Nc3ccc(-n4cnc(C)n4)c(OC)c3)ncc21 (stereo not shown) [Example 15] | >15 |
| COCCN1C(=O)C2(CCOCC2)N(C)c2nc(Nc3ccc(-n4cnc(C)n4)c(OC)c3)ncc21 [Example 13] | >13 |
| COc1cc(Nc2ncc3c(n2)N(CC2CCOCC2)C2(CCOC2)C(=O)N3CC2CCOCC2)ccc1-n1cnc(C)c1 (stereo not shown) [Example 24] | >10 |
| COc1cc(Nc2ncc3c(n2)N(C)C2(CCOC2)C(=O)N3)ccc1-n1cnc(C)c1 (stereo not shown) [Example 10] | 46 |
| COCCN1C(=O)C2(CCOC2)N(C)c2nc(Nc3ccc(-c4ccnc(C)c4)cc3)ncc21 (stereo not shown) [Example 14] | >27 |
